Results on two substances are retold here after patent publication US20240400647A1, “Biologically Active Collagen Hybridizing Peptides” (3HELIX, INC., priority 2021, published 2024).

This experiment relates to IMR-90 human lung fibroblasts. Briefly: IMR-90 fibroblast culture with peptides, gelatin or collagen added to media. The experiment is classed as cell-based. To be noted: 30 μg/mL added to media, imaged after three days at 37° C. The protocol:
IMR-90 human lung fibroblasts were purchased from ITCC. Cells were thawed and cultured in EMEM supplemented with 10% FBS and 1% Pen-Strep. Cells were cultured to 80-95% confluency then sub-cultured for three passages prior to utilization in experiments.
Experimental wells were prepared by adding 100 μL cell media to wells of a 96-well gelatin coated plate (corning) or 300 μL media to the wells of a 48-well uncoated cell culture plate. Peptides, as listed below, were added to each well (5 μL to 96 well plates, 10 μL to 48 well plates).
During passaging, cells were quantified, and 2100 IMR-90 cells were added to each well of the 96 well gelatin-coated plate. For the uncoated plate IMR-90 cells were added to each well. Additional media was added to bring the volume to 200 μL (96 well) or 500 μL (48 well). Cells were cultured at 37° C., 5% CO2 for three days then imaged. […] Media was added one day later (day 4) then allowed to culture an additional 2 days before imaging and lysing cells. qPCR was performed on cell lysate following cDNA synthesis (cell-to-CT kit, Thermo Fisher scientific).

As to collagen, the “confluence and directionality of cell growth” value was “higher confluence and more directionality in cell growth”.
The result for gelatin reads “higher confluence and more directionality in cell growth”.
